Values of other authors in patent publication US20120010144A1, “Peg-albumin composition having at least one protected thiol region as a platform for medications” (priority 2009, published 2012).

details: soluble in water (hydrophilic) or in lipid (hydrophobic)

Compound | Solubility
Carotenes | Lipid
N[C@@H](CCC(=O)N[C@@H](CS)C(=O)NCC(=O)O)C(=O)O [Glutathione] | Water
Cc1c(C)c2c(c(C)c1O)CC[C@@](C)(CCC[C@H](C)CCC[C@H](C)CCCC(C)C)O2 [A-Tocopherol] | Lipid
COc1c(O)c(C)c(C/C=C(\C)CC/C=C(\C)CC/C=C(\C)CC/C=C(\C)CC/C=C(\C)CC/C=C(\C)CC/C=C(\C)CC/C=C(\C)CC/C=C(\C)CCC=C(C)C)c(O)c1OC [Ubiquinol] | Lipid
O=c1[nH]c(=O)c2[nH]c(=O)[nH]c2[nH]1 [Uric Acid] | Water
